Reference: patent US20130309184A1, “1,3-DIOXAN-5-ONE COMPOUNDS” (MERCK PATENT GMBH, priority 2011, published 2013)

Assays:
Type in all cases: physicochemical
[1] = Absorption strength (absorption spectrum in ethanol); set-up: λmax: unit not given here; settings: for λmax: absorption maximum, dilute solution in ethanol; for E1% value: extinction at the absorption maximum extrapolated to 1 g/100 ml; for E1% value / Half-value width: ethanol; for Half-value width: half-value width of the absorption band
Protocol: The measure used for the absorption strength is the so-called E1% value, and the half-value width of the absorption band in relation to the absorption maximum λmax indicated. The E1% value indicates the extinction at the absorption maximum extrapolated to a concentration of 1 g/100 ml. To this end, an absorption spectrum of the substance in ethanol is recorded in dilute solution. The values are compared with the reference spectra of curcumin and beta-carotene.

[2] = Thermal stability by thermogravimetry; settings: for Temperature at which 98% of the weight were still present: TGA, RT to 800° C., heating rate 10K/min; for thermal stabilities: verbal assessment, high-temperature processing possible without decomposition
Protocol: The thermal stability is determined with the aid of the thermogravimetry method (instrument TGA Q5000 V3.10 Build 258, temperature range RT to 800° C., heating rate 10K/min).

[3] = Solubility determination in phenethyl benzoate (X-Tend 226)
Protocol: The solubility determination was carried out in phenethyl benzoate (X-Tend 226): […]

[4] = Fluorescence measurements; settings: in ethanol; measurement concentration 0.00436 mg/ml (Example 4), 0.00048 mg/ml (Example 8), 0.00045 mg/ml (Example 17)
Protocol: The substance concentrations in ethanol indicated in the table are measured using an Aminco Bowman 2 fluorescence spectrometer (cell thickness 1 cm; excitation 220-600 nm; emission 220-800 nm; spectral gap width (excitation) 4 nm, (emission) 8 nm; recording speed 10 nm/min; step width (excitation) 5 nm, (emission) 4 nm.

Row | SMILES | λmax [1] | E1% value [1] | Half-value width [1] [nm] | Temperature at which 98% of the weight were still present [2] [° ° C.] | Solubility in X-Tend 226 [3] [%] | thermal stabilities [2] | Emission [4] [nm] | Excitation [4] [nm]
1 | CC1=C(/C=C/C(C)=C/C=C/C(C)=C/C=C/C=C(C)/C=C/C=C(C)/C=C/C2=C(C)CCCC2(C)C)C(C)(C)CCC1 [Beta-carotene, beta-carotene, reference compound] | 453 | 408 | 88 | 84 | 0.2 |  |  | 
2 | COc1cc(/C=C/C(=O)CC(=O)/C=C/c2ccc(O)c(OC)c2)ccc1O [Curcumin, curcumin, reference compound] | 426 | 1507 | 78 | 223 | 0.4 |  |  | 
3 | CCOC1(C)O/C(=C\c2ccc(OC)cc2)C(=O)/C(=C/c2ccc(OC)cc2)O1 (stereo not shown) [Example 1, (4Z,6Z)-2-ethoxy-4,6-bis[(4-methoxyphenyl)methylene]-2-methyl-1,3-dioxan-5-one] | 402 | 873 | 84 |  | 2.8 |  |  | 
4 | CCOC1(C)O/C(=C\c2ccc(OC)c(OC)c2)C(=O)/C(=C/c2ccc(OC)c(OC)c2)O1 (stereo not shown) [Example 2] | 412 | 617 | 85 |  | 1.2 |  |  | 
5 | CCOC1(C)O/C(=C\c2ccc(OC)cc2OC)C(=O)/C(=C/c2ccc(OC)cc2OC)O1 (stereo not shown) [Example 3] | 419 | 688 | 93 |  | 1.0 |  |  | 
6 | CCOC1(C)O/C(=C\c2cc(OC)c(OC)cc2OC)C(=O)/C(=C/c2cc(OC)c(OC)cc2OC)O1 (stereo not shown) [Example 4] | 444 | 304 | 92 | 256 | <0.1 | excellent | 596 | 440
7 | CCOC1(C)O/C(=C\c2cc(OC)c(OC)c(OC)c2)C(=O)/C(=C/c2cc(OC)c(OC)c(OC)c2)O1 (stereo not shown) [Example 5] | 394 | 647 | 85 |  | 1.1 |  |  | 
8 | CCCCCCCCOc1ccc(/C=C2\OC(C)(OCC)O/C(=C\c3ccc(OCCCCCCCC)cc3)C2=O)cc1 (stereo not shown) [Example 6, (4Z,6Z)-4,6-bis[(4-octyloxyphenyl)methylene]-2-ethoxy-2-methyl-1,3-dioxan-5-one] | 404 | 557 | 87 |  | 1.0 |  |  | 
9 | CCOC1(C)O/C(=C\c2ccc(Oc3ccccc3)cc2)C(=O)/C(=C/c2ccc(Oc3ccccc3)cc2)O1 (stereo not shown) [Example 7, (4Z,6Z)-4,6-bis[(4-phenoxyyphenyl)methylene]-2-ethoxy-2-methyl-1,3-dioxan-5-one] | 389 | 675 | 84 |  | 2.2 |  |  | 
10 | CCCCN(CCCC)c1ccc(/C=C2\OC(C)(OCC)O/C(=C\c3ccc(N(CCCC)CCCC)cc3)C2=O)cc1 (stereo not shown) [Example 8, (4Z,6Z)-4,6-bis[[(4-dibutylamino)phenyl]methylene]-2-ethoxy-2-methyl-1,3-dioxan-5-one] | 486 | 953 | 105 | 274 | 2.8 | excellent | 640 | 485
11 | CCOC1(C)O/C(=C\c2ccc(N(C)C)cc2OC)C(=O)/C(=C/c2ccc(N(C)C)cc2OC)O1 (stereo not shown) [Example 17, 2-ethoxy-2,6-bis-[1-(4-dimethylamino-2-methoxyphenyl)meth-(Z)ylidene]-2-methyl-1,3-dioxan-5-one] |  |  |  |  |  |  | 632 | 490
